From the NIST ThermoML archive (doi:10.1016/j.fluid.2016.01.028)
Numbers after ± are expanded uncertainties.

Conditions: Liquid, Closed cell (Static) method

| Structure (SMILES) | vapor or sublimation pressure (283.15 K) [kPa] | vapor or sublimation pressure (293.15 K) [kPa] | vapor or sublimation pressure (303.15 K) [kPa] | vapor or sublimation pressure (313.15 K) [kPa] | vapor or sublimation pressure (323.15 K) [kPa] |
| --- | --- | --- | --- | --- | --- |
| FCC(F)(F)F [1,1,1,2-tetrafluoroethane] | 415.5 ± 1.2 | 572.4 ± 1.3 | 768.9 ± 1.5 | 1015.5 ± 1.8 | 1317.2 ± 2.1 |
| C=C(F)C(F)(F)F [2,3,3,3-tetrafluoro-1-propene] | 437.9 ± 1.2 | 591.5 ± 1.3 | 782.9 ± 1.5 | 1018.2 ± 1.8 | 1302.4 ± 2.1 |
| CC(C)C [2-methylpropane] | 220.9 ± 1.1 | 302.7 ± 1.1 | 404.4 ± 1.2 | 531.3 ± 1.3 | 684.2 ± 1.4 |
